# Measured values published in US11406642B2, “DNP and DNP prodrug treatment of neuromuscular, neurodegenerative, autoimmune, developmental, traumatic brain injury, concussion, dry eye disease, hearing loss and/or metabolic diseases” (priority 2016, dated 2022).
# “Also recorded” adds a separate entry of the source.
# Key:
# [1] = tested on: EAE mouse model of Multiple Sclerosis; assay: EAE MS model (clinical score, body weight); type: in vivo; conditions: for progression of paralysis monitored as Clinical Score: administered 7-days after induction of MOG35-55 myelin peptide; for weight loss / body weight changes: versus Placebo mice
# Description: FIG. 1 is a chart illustrating the comparative effect of two compounds of the invention at lowering or blocking progression of paralysis as monitored as a Clinical Score (EAE MS model comparing parent (2,4-DNP) to prodrug (II-38) at equivalent exposures of 5 mpk parent to […] prodrug for efficacy). Legend: diamond—placebo; square—2,4-DNP 5 mpk; triangle—II-38 8 mpk; x—II-38 16 mpk; asterisk—II-38 80 mpk. P values by Ordinal Regression: 2,4-DNP 5 mpk=0.0192; II-38 8 mpk=0.000954; II-38 16 mpk=0.000124; II-38 80 mpk=0.00014 (results from logistic regression model using ordinal package from cran project, www.cran.r-project.org).
# Legend: diamond—placebo; square—2,4-DNP 5 mpk; triangle—II-38 8 mpk; x—II-38 16 mpk; asterisk—II-38 80 mpk. All doses significant to preserving body weight. P values by Ordinal Regression: 2,4-DNP 5 mpk=0.0188; II-38 8 mpk<0.0001; II-38 16 mpk=0.044; II-38 80 mpk<0.0001.
# In one embodiment, the compositions and methods of the invention relate to a pharmacological intervention that abolishes overt ROS production and improves the quality of the mitochondrial population by mitophagy, induces Brain Derived Neurotrophin Factor (BDNF), increases cAMP, and/or remodels cellular expression. In one embodiment, a drug of the invention thus becomes “disease modifying.” In one embodiment, a prodrug of DNP (II-38) was administered to a mouse model of Multiple Sclerosis, called the EAE, 7-days after induction of the MOG35-55 myelin peptide. The ProDrug of DNP, II-38, was administered at multiples of exposure to 2,4-DNP or DNP. […] Even though DNP historically was used in the 1930's for weight loss at high doses, here it is shown that it can paradoxically be repositioned to prevent wasting associated with neurodegenerative/autoimmune diseases at low doses.
# [2] = Stability of II-38 in hydrochloric acid buffer, pH 1.2; type: physicochemical; conditions: pH 1.2, 37° C., 5% DMSO, within 8 h
# Procedure: pH: Stability in aqueous buffers (37° C., pHs 1.2 and 7.4)
# HPLC analysis was carried out on an Agilent 1200 Infinity Series Quatpump, equipped with a photodiode array detector and a computer integrating apparatus. An Inertsil ODS-3 column, C18, 5 μm, 4.6×50 mm (GL Science Inc. Japan) protected with a guard column: Alltima C18, 5 μm, 4.6×7.5 mm (Grace Discovery Sciences, IL, USA) was used as the stationary phase. An isocratic method with a mobile phase consisting of water/acetonitrile (70:30) containing 0.05% formic acid in each was used. A flow rate of 0.9 mL/min was used and detection was carried out at a UV wavelength of 250 nm.
# Hydrochloric acid, pH 1.2 buffer was prepared. II-38 (2.5 mg) was dissolved in 0.125 mL of DMSO (5%). Reactions were initiated by adding II-38 dissolved in DMSO slowly and gradually to a total volume of 2.375 mL of HCl buffer, pH 1.2 (Table 1) in a Franz cell diffusion chamber preheated to 37° C. The solution was mixed for 30 sec every half an hour using magnetic stirrer. Samples of 20 μL (20 μg/mL of II-38) were collected at 0, 1, 2, 4, 6 and 8 h. Each sample was mixed with acetonitrile QS to 1 mL, vortex-mixed for 30 sec and centrifuged at 10,000 rpm at room temp. A volume of 10 μL of the supernatant was injected into the HPLC spectrometer for detection of 2,4-DNP and II-38 in HCl buffer, pH 1.2.
# [3] = 28-day toxicity studies; type: in vivo; conditions: low doses
# Description: (§1) Overt reactive oxygen species (ROSs) can be produced due to noise and certain ototoxic drugs that can damage the hair cells of the ear, resulting in either temporary or permanent hearing loss. Exposure to blast waves and continuous noise not only damaged the inner ear, but caused cell death in the hippocampus, suppressed neurogenesis and impaired memory function. Aging as well can manifest in mitochondrial dysfunction leading to hearing loss. It is emerging that attempts to treat hearing loss by targeting downstream issues is not very effective. In one embodiment, the compositions and methods of the invention relate to targeting oxidative stress upstream at the mitochondria that may be causative for many disorders. There have been a variety of attempts to lower cellular stress, such as administering anti-oxidants, however these drugs have limited tissue penetration into the brain and lower ROSs after they have been formed. […] While not being bound to theory, it is postulated that DNP modulates the mitochondrial membrane potential having a significant impact at preventing ROS formation in isolated mitochondria and in the treated wildtype mice. DNP treatment 3-hours post-ischemia reduced cerebral infarct volume 40% by protecting the penumbra or “threaten tissue” and could provide similar benefits after a blast to protect inner hair cells from eminent cell death. […]
# [4] = tested on: wildtype mice; assay: Lifespan of chronically treated wildtype mice; type: in vivo; conditions: wildtype mice chronically treated with an extraordinarily low dose
# Description: as §1
# [5] = tested on: mouse model of Alzheimer's disease; assay: Alzheimer's disease mouse model, Morris Water Maze; type: in vivo; conditions: chronic treatment
# Description: In one embodiment, the invention provides compositions and methods for treating neurodegenerative diseases such as Alzheimer's disease, Parkinson, and Huntington's disease. It is believed that the complete lack of historic success is due to most pharmaceutical industries focusing on a downstream event, such as plaques/tangles, whereas the issue is likely upstream at the mitochondria causing high cellular stress.
# [6] = tested on: spiny neurons; assay: Model of Huntington's disease; type: in vivo; conditions: treatment for over 17-weeks
# Description: In one embodiment, the invention provides compositions and methods for treating Huntington's disease. […] DNP should prevent muscle loss since it reduces mitochondrial osmotic swelling by reducing intra-mitochondrial calcium concentration and inducing BDNF, which is a myokine (muscle protectant) outside of the brain.
# [7] = in rats, general statement; cited from earlier work
# [8] = tested on: cerebral infarct; conditions: treatment 3-hours post-ischemia; cited from earlier work
SMILES,progression of paralysis monitored as Clinical Score [1],weight loss / body weight changes [1],hydrolysis / stability in HCl buffer [2],Safety Index [3],toxicity [3],lifespan [4],short term memory in the Morris Water Maze [5],effect on spiny neurons [6],half-life [7],reduction of cerebral infarct volume [8]
"O=C(Oc1ccc([N+](=O)[O-])cc1[N+](=O)[O-])N1CCOCC1 [II-38, 2,4-Dinitrophenyl morpholine-4-carboxylate]",striking effect at lowering or blocking progression of paralysis,preventing weight loss seen in the Placebo mice,"no significant hydrolysis; also recorded: did not show significant hydrolysis; also recorded: no evidence of 2,4-DNP formation",,,,,,,
"O=[N+]([O-])c1ccc(O)c([N+](=O)[O-])c1 [2,4-DNP, 2,4-dinitrophenol]",striking effect at lowering or blocking progression of paralysis,preventing weight loss seen in the Placebo mice,,≥ 10 ×,not toxic,living longer than untreated mice,strikingly improved,protection on the spiny neurons,~6 h,40%
